Values after ≈ are worked out from the molar mass of the structure shown.
Legend:
acid ceramidase = target: T1, acid ceramidase (Homo sapiens, UniProt Q13510); assay: Acid ceramidase inhibition, biochemical fluorescent assay with cell lysates overexpressing acid ceramidase, substrate Rbm14-12; settings: substrate Rbm14-12 6.3 μM, pH 4.5
T1 construct: Cell lysates overexpressing acid ceramidase were used as the enzyme source; expressed in transfected cells
T1 sequence (Q13510 22-395): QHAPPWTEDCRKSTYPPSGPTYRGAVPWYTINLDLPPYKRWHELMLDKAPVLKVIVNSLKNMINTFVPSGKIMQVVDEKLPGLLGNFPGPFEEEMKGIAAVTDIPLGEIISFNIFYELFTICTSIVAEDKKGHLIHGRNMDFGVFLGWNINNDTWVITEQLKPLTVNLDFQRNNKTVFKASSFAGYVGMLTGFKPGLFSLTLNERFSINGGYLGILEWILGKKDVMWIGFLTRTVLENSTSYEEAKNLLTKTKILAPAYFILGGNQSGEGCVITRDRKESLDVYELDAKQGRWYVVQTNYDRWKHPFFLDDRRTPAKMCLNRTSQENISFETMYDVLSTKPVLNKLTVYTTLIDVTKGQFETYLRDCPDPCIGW
Summary of the method: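 Lysate of cells overexpressing acid ceramidase (10 μg protein) preincubated with compound dose series 1 hr at RT in 25 mM NaAC, 100 mM NaCl, pH 4.5, then reacted 1 hr with 6.3 μM Rbm14-12. Stopped with NaIO4/glycine buffer pH 10.6, fluorescence ex360/em446; IC50 by four-parameter fit.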

[1] = Compound solubility in water

Row | SMILES | IC50 (acid ceramidase) [nM] | solubility [1] [µg/mL]
1 | COc1nc2c(N3CCN(C)CC3)cccc2n1C(=O)NCC#Cc1ccccc1 [Example 322, 2-Methoxy-4-(4-methylpiperazin-1-yl)-N-(3-phenylprop-2-yn-1-yl)-1H-benzo[d]imidazole-1-carboxamide] | 200 to 1000 | 22 (≈ 54.5 µM)
2 | CN1CCN(c2cccc3c2ncn3C(=O)NCCc2ccccc2)CC1 [Example 324, 4-(4-Methylpiperazin-1-yl)-N-phenethyl-1H-benzo[d]imidazole-1-carboxamide] | 200 to 1000 | 11 (≈ 30.3 µM)
3 | CN1CC(N2CCN(c3cccc4c3ncn4C(=O)NCCc3ccccc3)CC2)C1 [Example 325, 4-(4-(1-Methylazetidin-3-yl)piperazin-1-yl)-N-phenethyl-1H-benzo[d]imidazole-1-carboxamide] | < 200 | 32 (≈ 76.5 µM)
4 | O=C(NCCc1ccccc1)n1cnc2c(N3CCN(C4COC4)CC3)cccc21 [Example 326, 4-(4-(Oxetan-3-yl)piperazin-1-yl)-N-phenethyl-1H-benzo[d]imidazole-1-carboxamide] | < 200 | 21 (≈ 51.8 µM)
5 | O=C(NCCOc1ccccc1)n1cnc2c(N3CCN(C4COC4)CC3)cccc21 [Example 327, 4-(4-(Oxetan-3-yl)piperazin-1-yl)-N-(2-phenoxyethyl)-1H-benzo[d]imidazole-1-carboxamide] | < 200 | 25 (≈ 59.3 µM)
6 | CN1CC(N2CC3CC2CN3c2cccc3c2ncn3C(=O)NCCOc2ccccc2)C1 (stereo not shown) [Example 328, 4-(5-(1-Methylazetidin-3-yl)-2,5-diazabicyclo[2.2.1]heptan-2-yl)-N-(2-phenoxyethyl)-1H-benzo[d]imidazole-1-carboxamide] | < 200 | 41 (≈ 91.8 µM)
7 | COc1nc2c(N3CC(N4CCN(C)CC4)C3)cccc2n1C(=O)NCCOc1ccccc1 [Example 329, 2-Methoxy-4-(3-(4-methylpiperazin-1-yl)azetidin-1-yl)-N-(2-phenoxyethyl)-1H-benzo[d]imidazole-1-carboxamide] | > 1000 | 38 (≈ 81.8 µM)
8 | CN(C)CC1CN(c2cccc3c2ncn3C(=O)NCC#Cc2ccccc2)C1 [Example 331, 4-(3-((Dimethylamino)methyl)azetidin-1-yl)-N-(3-phenylprop-2-yn-1-yl)-1H-benzo[d]imidazole-1-carboxamide] | < 200 | 22 (≈ 56.8 µM)

Results, then the compound that gave them:

Row | IC50 (acid ceramidase) [nM] | solubility [1] [µg/mL] | SMILES
9 | < 200 | 16 (≈ 44 µM) | Cc1ccc(CNC(=O)n2cnc3c(N4CCN(C)CC4)cccc32)cc1 [Example 323, N-(4-Methylbenzyl)-4-(4-methylpiperazin-1-yl)-1H-benzo[d]imidazole-1-carboxamide]
10 | < 200 | 38 (≈ 96.6 µM) | CN(C)CC1CN(c2cccc3c2ncn3C(=O)NCCOc2ccccc2)C1 [Example 330, 4-(3-((Dimethylamino)methyl)azetidin-1-yl)-N-(2-phenoxyethyl)-1H-benzo[d]imidazole-1-carboxamide]
11 | < 200 | 24 (≈ 56 µM) | CN1CCN(C2CN(c3cccc4c3ncn4C(=O)NCC#Cc3ccccc3)C2)CC1 [Example 332, 4-(3-(4-Methylpiperazin-1-yl)azetidin-1-yl)-N-(3-phenylprop-2-yn-1-yl)-1H-benzo[d]imidazole-1-carboxamide]
12 | < 200 | 26 (≈ 60.7 µM) | CN1CC(N2CCN(c3cccc4c3ncn4C(=O)NCC#Cc3ccccc3)CC2)C1 [Example 333, 4-(4-(1-Methylazetidin-3-yl)piperazin-1-yl)-N-(3-phenylprop-2-yn-1-yl)-1H-benzo[d]imidazole-1-carboxamide]
13 | < 200 | 3 (≈ 7.53 µM) | COc1nc2cc(F)c(N3CCOCC3)cc2n1C(=O)NCCc1ccccc1 [Example 334a, 5-Fluoro-2-methoxy-6-morpholino-N-(2-phenethyl)-1H-benzo[d]imidazole-1-carboxamide]
14 | < 200 | 5 (≈ 12.5 µM) | COc1nc2cc(N3CCOCC3)c(F)cc2n1C(=O)NCCc1ccccc1 [Example 334b, 6-fluoro-2-methoxy-5-morpholino-N-(2-phenethyl)-1H-benzo[d]imidazole-1-carboxamide]

From patent US20220380319A1 (Bial - R&D Investments, S.A., priority 2019, published 2022)
